Reference: patent publication US9320733B2, “Assessment and modulation of cerebrospinal fluid for head pain” (priority 2010, dated 2016)

System: patient with headache (CSF pressures 13-14 cmW)
Test: Case report (Example 1): one patient with 10 years of headache and normal CSF pressure, treated by CSF removal via lumbar puncture and then Diamox
Type: in vivo, human
Protocol: Therefore more CSF was drained 10 ml total. […] For example triptans may be combined with Diamox or diuretics, triptans may be combined with NSAM or Lumbar puncture, shunts or intraocular drainage procedures may be use singularly or together.

postdural puncture headache (PDPH) while on treatment (3 days after LP with 10 ml CSF drained and start of Diamox, PDPH lost on brief discontinuation)	SMILES	usual headache after being placed on Diamox (after removal of 10 ml CSF by LP, 3 days later)	symptom status on maintenance treatment (low dose Diamox, after CSF removal)	response of the major headache component to medication (10 years of headache, before CSF removal)
developed postdurai puncture headache	CC(=O)Nc1nnc(S(N)(=O)=O)s1 [Diamox, acetazolamide]	total absence of their usual headache	symptom free	
	CC1(C)O[C@@H]2[C@@H](CO[C@@]3(COS(N)(=O)=O)OC(C)(C)O[C@@H]23)O1 [Topamax, topiramate]			refractory to treatment
